The record followed here is US20080234498A1, “Pyrovalerone Analogues and Therapeutic Uses Thereof” (PRESIDENT AND FELLOW OF HARVARD COLLEGE, priority 2003, published 2008).

Structures are written as SMILES. Where a name gives a salt, the structure may show the parent alone. Read-outs that look alike come from different tables or passages of the source. Marks after values point to notes of the source that are not given here. Bounds are passed on as bounds.

In series [1] the target is dopamine transporter (DAT) (Homo sapiens, UniProt Q01959). Briefly: Radioreceptor assay, inhibition of (3H)WIN 35,428 binding to the dopamine transporter. The source says:
Dysfunction of dopamine neurons has been implicated in several neuropsychiatric diseases. Imaging of the dopamine neurons offers important clinical information relevant to diagnosis and therapeutic treatments. Dopamine neurons produce dopamine, release the neurotransmitter and remove the released dopamine with a dopamine transporter protein. Compounds that bind to the dopamine transporter are effective measures of dopamine neurons and can be transformed into imaging agents for PET and for SPECT imaging (see, e.g., Example 70, infra, for use of PET imaging). In identifying a suitable compound for the dopamine transporter, an essential first step is to measure the affinity and selectivity of a candidate at the dopamine transporter. The affinity can be measured by conducting radioreceptor assays. A radiolabeled marker for the transporter, e.g., (^3H)WIN 35,428, is incubated with the unlabeled candidate and a source of the transporter, usually brain striatum. The effect of various concentrations of the candidate on inhibiting (^3H)WIN 35,428 binding is quantified. The concentration of the compound that inhibits 50% of (^3H)WIN 35,428 bound to the transporter (IC50 value) is used as a measure of its affinity for the transporter. A suitable range of concentrations of the candidate typically is about 1 nM up to about 100 nM, more preferably 1 to 10 nM.
(§1) ^3H-WIN 35,428 (^3H-CFT, 2β-carbomethoxy-3β-(4-fluorophenyl)-N-^3H-methyltropane, 79.4-87.0 Ci/mmol) and ^3H-citalopram (86.8 Ci/mmol) is purchased from DuPont-New England Nuclear (Boston, Mass.). HPLC analyses are carried out on a Waters 510 system with detection at 254 nm on a Chiralcel OC column (flow rate: 1 mL/min).

The next series deals with T1, dopamine transporter (Macaca mulatta, UniProt Q7JHP9).
T1 construct: occupy the dopamine transporter in living brain; from tissue; host or cells: living brain of rhesus monkeys (in vivo PET)
Kind of series: Dopamine transporter occupancy by PET imaging with [11C]CFT. In kind it is in vivo, Rhesus monkeys. Conditions: for [11C]CFT with Compound (binding potential) / % Occupancy / % Occupancy, cerebellum levels considered background: rhesus monkey; for [11C]CFT with Compound (binding potential): compound intravenously, PET one hour after administration; for % Occupancy / % Occupancy, cerebellum levels considered background: i.v., one hour; for % Occupancy: from reduced [11C]CFT binding potential vs baseline; for Brain entry and occupancy of DAT sites (in words): living brain, PET imaging, cerebellum as the negative control; for % Occupancy, cerebellum levels considered background: reduced to levels of cerebellum = full occupancy. As to the method: As the compounds of the invention are high affinity ligands for the dopamine transporter, we determined whether they occupy the dopamine transporter in living brain within 1 hour of administration. To monitor occupancy of the dopamine transporter, PET imaging was conducted with the high affinity dopamine transporter probe [11C]CFT ([11C]WIN 35,428). Rhesus monkeys were anesthetized with ketamine and xylazine and an indwelling intravenous catheter was placed in a leg vein. DAT density (binding potential) was acquired with [11C]CFT to obtain baseline levels. Immediately following completion of the imaging session, monkeys were administered the test compound intravenously via the indwelling catheter and PET imaging was conducted one hour after administration. Imaging data from the pre- and post-drug session were compared and occupancy was calculated on the basis of reduced [11C]CFT binding potential one hour or longer after administration of the compound. The following table (Table 1) summarizes pilot data from this study.

The target in series [2] is serotonin transporter (SERT) (Homo sapiens, UniProt P31645). Briefly: Radioreceptor assay, inhibition of (3H)citalopram binding to the serotonin transporter. As to the method: The serotonin transporter is also detectable in the striatum, the brain region with the highest density of dopamine neurons and in brain regions surrounding the striatum. […] Therefore, a measure of probe affinity of the serotonin transport is conducted by assays paralleling the dopamine transporter assays.
as §1

dopamine transporter (DAT), sequence (Q01959 whole entry, species assumed): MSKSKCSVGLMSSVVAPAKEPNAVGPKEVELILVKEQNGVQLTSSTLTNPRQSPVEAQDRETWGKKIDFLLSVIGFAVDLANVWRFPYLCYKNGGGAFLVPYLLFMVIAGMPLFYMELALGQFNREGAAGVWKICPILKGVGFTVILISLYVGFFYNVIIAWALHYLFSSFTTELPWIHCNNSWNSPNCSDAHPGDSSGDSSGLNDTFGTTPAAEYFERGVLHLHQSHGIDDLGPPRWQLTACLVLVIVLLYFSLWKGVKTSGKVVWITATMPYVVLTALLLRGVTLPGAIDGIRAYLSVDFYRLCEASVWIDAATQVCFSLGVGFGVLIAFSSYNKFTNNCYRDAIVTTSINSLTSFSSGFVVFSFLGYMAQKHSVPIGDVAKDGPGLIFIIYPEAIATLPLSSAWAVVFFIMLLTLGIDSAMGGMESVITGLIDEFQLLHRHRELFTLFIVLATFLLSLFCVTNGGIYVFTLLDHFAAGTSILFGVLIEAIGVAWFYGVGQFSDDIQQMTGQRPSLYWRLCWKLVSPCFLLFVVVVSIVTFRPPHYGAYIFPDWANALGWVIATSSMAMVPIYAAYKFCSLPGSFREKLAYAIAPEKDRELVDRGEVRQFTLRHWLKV
T1 sequence (Q7JHP9 1-620): as the sequence (Q01959 whole entry, species assumed) above, with V24M, I137V, P194S, S198G, D200N, S201G, S202P counted along it
serotonin transporter (SERT), sequence (P31645 whole entry, species assumed): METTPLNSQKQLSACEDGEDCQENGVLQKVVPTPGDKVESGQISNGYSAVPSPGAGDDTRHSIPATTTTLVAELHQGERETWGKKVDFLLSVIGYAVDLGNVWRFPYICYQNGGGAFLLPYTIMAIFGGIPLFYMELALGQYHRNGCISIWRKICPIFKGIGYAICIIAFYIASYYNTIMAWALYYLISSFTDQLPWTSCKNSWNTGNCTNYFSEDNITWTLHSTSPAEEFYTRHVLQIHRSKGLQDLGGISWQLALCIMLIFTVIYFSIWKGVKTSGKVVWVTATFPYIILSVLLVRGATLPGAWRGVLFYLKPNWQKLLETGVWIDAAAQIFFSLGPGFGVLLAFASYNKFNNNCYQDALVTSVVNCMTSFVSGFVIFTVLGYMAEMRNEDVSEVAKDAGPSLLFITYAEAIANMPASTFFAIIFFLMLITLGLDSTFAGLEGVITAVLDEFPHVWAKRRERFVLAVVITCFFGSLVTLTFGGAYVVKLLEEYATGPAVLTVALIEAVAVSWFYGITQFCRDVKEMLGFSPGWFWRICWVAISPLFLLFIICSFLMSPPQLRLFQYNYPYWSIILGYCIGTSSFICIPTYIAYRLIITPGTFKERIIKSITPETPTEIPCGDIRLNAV

As usually defined, the melting point is the temperature of the solid-liquid transition. For `CCCC(C(=O)c1ccc(Cl)c(Cl)c1)N1CCCCC1` (centres unmarked) (as salt: salt), the melting point was 202 °C (dec.). Consider `CCCC(N1CCCC1)C(O)(Cc1ccccc1)c1ccc(C)cc1` (centres unmarked) (as salt: salt), for which the melting point is 211 °C (dec.).

In series [1], `CCCC(C(=O)c1ccc(Br)cc1)N1CCCC1` (centres unmarked) [Compound O-2419, 2-Pyrrolidin-1-yl-1-(4′-bromo-phenyl)-pentan-1-one] came in with an IC50 of 8 nM. Also, on dopamine transporter, the “[11C]CFT with Compound (binding potential)” value (“[11C]CFT with Compound” below) is recorded as 1.6025 and the “% Occupancy” value was found to be 33%. Regarding `CCCC(C(=O)c1ccc(I)cc1)N1CCCC1` (centres unmarked) (as salt: salt), the melting point is 218 °C (dec.).

Take `CCCC(C(=O)c1ccc(F)cc1)N1CCCC1` (centres unmarked) (as salt: salt): the melting point is 218 °C (dec.).

For `CCCC(C(=O)c1ccc(CO)cc1)N1CCCC1` (centres unmarked) (as salt: salt), the melting point is 186 to 187 °C (dec.). Take `CCC(C(=O)c1ccc(Cl)c(Cl)c1)N1CCCC1` (centres unmarked) (as salt: salt): the melting point is 211 °C (dec.). Same read-out and setting: with `CCCC(C(=O)c1ccc(C#N)cc1)N1CCCC1` (centres unmarked) (as salt: salt) the figure was 197 to 199 °C (dec.). Turning to `CCC(CC(=O)c1ccc(Cl)c(Cl)c1)N1CCCC1` (centres unmarked) (as salt: salt), the melting point was 104 to 107 °C (dec.).

As for `CCC(CC(=O)c1ccc(C)cc1)N1CCCC1` (centres unmarked) (as salt: salt), the melting point was 97 °C (dec.). For the compound `CCCC(C(=O)c1ccc(C(F)(F)F)cc1)N1CCCC1` (centres unmarked) (as salt: salt), the melting point was 228 °C (dec.). `CCCC(C(=O)c1ccc(C)cc1)N1CCCC1` (racemic) [Compound O-2371, 2-Pyrrolidin-1-yl-1-p-tolyl-pentan-1-one] had an IC50 in series [1] of 8 nM. Besides, at dopamine transporter, the “Brain entry and occupancy of DAT sites (in words)” value was “most efficient in entering the brain and occupying the majority of DAT sites”; the “[11C]CFT with Compound” value is on record as 0.4551; the “% Occupancy” value came to 74%; the “% Occupancy, cerebellum levels considered background” value was 100* %. As for `CCCC(C(=O)c1ccc(C(=O)OC)cc1)N1CCCC1` (centres unmarked) (as salt: salt), the melting point was 202 °C (dec.). For the compound `C#CCC(C(=O)c1ccc(C)cc1)N1CCCC1` (centres unmarked) (as salt: salt), the melting point was 178 °C (dec.). Take `CCCC(C(=O)c1cccc(C)c1)N1CCCC1` (centres unmarked) (as salt: salt): the melting point was 166 °C (dec.). Consider `CCCC(C(=O)c1ccc2ccccc2c1)N1CCCC1` (centres unmarked) (as salt: salt), for which the melting point is 221 to 223 °C (dec.). `CCCC(C(=O)c1ccc(O)c(O)c1)N1CCCC1` (centres unmarked) (as salt: salt) came in with a melting point of 181 to 182 °C. As to `CCCC(C(=O)c1ccc(Br)cc1)N1CCCC1` (centres unmarked) (as salt: salt) [Compound O-2419, 2-Pyrrolidin-1-yl-1-(4′-bromo-phenyl)-pentan-1-one], the melting point was 200 °C (dec.). Same read-out and setting: with `CCCC(C(=O)c1ccc([N+](=O)[O-])cc1)N1CCCC1` (centres unmarked) (as salt: salt) the figure was 189 °C (dec.). For `CCC[C@@H](C(=O)c1ccc(C)cc1)N1CCCC1` [Compound O-2442, (2S)-2-Pyrrolidin-1-yl-1-p-tolyl-pentan-1-one], the IC50 in series [1] was 3 nM. Also, in series [1] (2S versus 2R enantiomer), the “DAT inhibition potency, comparison of enantiomers” value is listed as “more potent DAT inhibitor than the 2R-enantiomer”. The compound further registered an IC50 in series [2] greater than 4000 nM. For the same compound, on dopamine transporter, the “Brain entry and occupancy of DAT sites (in words)” value is “most efficient in entering the brain and occupying the majority of DAT sites”; the “[11C]CFT with Compound” value is recorded as 0.6112; the “% Occupancy” value was 70%; the “% Occupancy, cerebellum levels considered background” value is 100* %. Turning to `CCCC(C(=O)c1cccc(I)c1)N1CCCC1` (centres unmarked) (as salt: salt), the melting point is 203 °C (dec.).

For the compound `CCCC(C(=O)c1ccc(Cl)c(Cl)c1)N1CCCC1` (centres unmarked) [Compound O-2390, 2-Pyrrolidin-1-yl-1-(3,4-Dichloro-phenyl)-pentan-1-one], the IC50 in series [1] turned out to be 8 nM. Moreover, on dopamine transporter, the “[11C]CFT with Compound” value stood at 0.5898 and the “% Occupancy” value worked out at 56%. As to `C=CCC(C(=O)c1ccc(C)cc1)N1CCCC1` (centres unmarked) (as salt: salt), the melting point was 196 °C (dec.). The same measure, in the same setting: with `CC#Cc1ccc(C(=O)C(CCC)N2CCCC2)cc1` (centres unmarked) (as salt: salt) the figure was 231 °C (dec.). Consider `CCCC(C(=O)c1ccccc1)N1CCCC1` (centres unmarked) [Compound O-2387, 2-Pyrrolidin-1-yl-phenyl-pentan-1-one], for which, in series [1] (affinity column of the PET occupancy table, read-out: DAT Affinity), the IC50 worked out at 13 nM. For the same compound, at dopamine transporter, the “[11C]CFT with Compound” value is given as 0.7885 and the “% Occupancy” value came to 64%. Regarding `CCCC(C(=O)c1ccc(Cl)c(Cl)c1)N1CCCC1` (centres unmarked) (as salt: salt) [Compound O-2390, 2-Pyrrolidin-1-yl-1-(3,4-Dichloro-phenyl)-pentan-1-one], the melting point is 195 °C (dec.). Consider `Cc1ccc(C(=O)C(CC(C)C)N2CCCC2)cc1` (centres unmarked) (as salt: salt), for which the melting point is 218 °C (dec.). As for `CCCC(C(=O)c1ccc(-c2cccs2)cc1)N1CCCC1` (centres unmarked) (as salt: salt), the melting point is 220 °C (dec.).

Consider `CCCC(C(=O)c1ccc(OC)c(OC)c1)N1CCCC1` (centres unmarked) (as salt: salt), for which the melting point is 177 °C (dec.).

As for `CCCC(C(=O)c1ccc(NC(C)=O)cc1)N1CCCC1` (centres unmarked) (as salt: salt), the melting point is 195 °C (dec.). On the same count and under the same terms, with `CCCC(C(=O)c1ccc(C)cc1)N1CCCC1` (racemic) (as salt: salt) [Compound O-2371, 2-Pyrrolidin-1-yl-1-p-tolyl-pentan-1-one] the figure was 180 °C (dec.).
